Results reported in patent publication US5478838A, “4-amino(alkyl)cyclohexane-1-carboxamide compound and use thereof” (Yoshitomi Pharmaceutical Industries, Ltd., priority 1991, dated 1995).

Columns and labels:
[1] = Antihypertensive action in conscious, unrestrained SHR (i.v.), Pharmacological Experiment 1; assay type: in vivo, spontaneously hypertensive rats (SHR); conditions: 0.3 mg/kg i.v., change in blood pressure
From the text: Catheters for blood pressure measurement and for drug administration were previously inserted into carotid artery and jugular vein of spontaneously hypertensive rats (SHR) weighing 350-450 g. […] The blood pressure was automatically measured and analyzed with a pressure transducer.

thoracic aorta = assay: Relaxation of phenylephrine-contracted thoracic aorta ring strips (vasodilation), Pharmacological Experiment 2; conditions: Oryctolagus cuniculus; phenylephrine 10^-6 M; rabbit aorta ring strips; read-out: Vasodilation, IC50, concentration required to inhibit phenylephrine-induced contraction by half
Method: Male rabbits (weighing 1.9-3.0 kg) were anesthetized with sodium pentobarbital and dehematized to remove thoracic aorta. Ring strips (about 2 mm wide) were prepared and suspended in a 40 ml-Magnus bath filled with Krebs-Henseleit solution (NaCl 117 mM; KCl 4.7 mH; CaCl2 2.5 mH; MgSO4 1.2 mM; NaHCO3 24.8 mM; KH2 PO4 1.2 mM; glucose 11.0 mM). The resting tension of 2 g was applied. The Magnus bath was constantly aerated with a mixed gas (95% oxygen+5% carbon dioxide gas). The tension of the strips was measured by an isometric transducer (TB-611T, Nihon Kohden, Japan). The strips were contracted with phenylephrine (10^-6 M) and after the contraction became stable, the compounds were cumulatively added to the bath and relaxing response was observed. The vasodilating action of the compounds was expressed as IC50 (μM), the concentration required to inhibit phenylephurine-induced contraction (which was taken as 100%) by half.

left coronary artery = assay: Effect on coronary blood flow, perfused left coronary artery of anesthetized dogs, Pharmacological Experiment 3; assay type: in vivo, mongrel dog; conditions: intracoronary injection; for Increase in coronary blood flow, ED50: dose giving half of the effect of 3 μg nifedipine
Method: Groups of 2 or 3 adult mongrel dogs were anesthetized with an intravenous administration of 30 mg/kg body weight of sodium pentobarbital. According to the method of Yago et al [Folia Pharmacologica Japonica, vol. 57, p. 380 (1961)], the left coronary artery was perfused and its blood flow was measured. Test compound was injected into the coronary artery at a volume of 10-300 μg. The effects of the test compound on coronary blood flow were expressed as ED50 (μg), the dose required to increase the coronary blood flow by a half of the effects by the coronary artery injection of 3 μg of nifedipine [dimethyl 2,6-dimethyl-4-(2-nitrophenyl)-1,4-dihydropyridine-3,5-dicarboxylate].
The half life (T 1/2, minute) was also measured as the duration of effects.

trachea = assay: Effect on acetylcholine-induced contraction of isolated trachea strips (bronchodilation), Pharmacological Experiment 4; set-up: species or system guinea pig (Hartley); conditions: Cavia porcellus; acetylcholine 10^-6 M contraction; papaverine 10^-4 M response taken as 100%
Method: Male Hartley guinea pigs weighing 260-390 g were anesthetized with sodium pentobarbital (100 mg/kg, i.p.). The guinea pigs were then dehematized and trachea was isolated. Ventral cartilage of the trachea was incised and ligament was insected to give 3 mm wide strips. The strips were suspended in a 40 ml-Magnus bath filled with Krebs-Henseleit solution (NaCl 117 mM; KCl 4.7 mM; CaCl2 2.5 mM; MgSO4 1.2 mM; NaHCO3 24.8 mM; KH2 PO4 1.2 mM; glucose 11.0 mM). The resting tension of 1 g was applied. The Magnus bath was constantly aerated with a mixed gas (95% oxygen+5% carbon dioxide gas). The tension of the strips was measured with an isometric transducer (TB-611T, Nihon Kohden, Japan) and recorded on a recorder (Ti-102, Tokai Irika, Japan). The strips were contracted with acetylcholine (10^-6 M) and after the contraction became stable, the compounds were cumulatively added to the bath and relaxing response was observed. The relaxation by the compounds was expressed as IC50 (μM), the concentration required to inhibit the papaverine (10^-4 M)-induced response (which was taken as 100%) by half.

[2] = tested on: experimental asthma caused by histamine inhalation; assay: Effects on experimental asthma caused by histamine inhalation, Pharmacological Experiment 5; assay type: in vivo, guinea pig (Hartley); conditions: 0.2% histamine
Method: According to Suyama [Allergy, vol. 15, p. 549 (1966)], female Hartley guinea pigs weighing 490-630 g were placed in an aerosol inhalation device, and 0.2% histamine solution (histamine chloride, Nakarai Kagaku, Japan) was sprayed with an ultrasonic nebulizer (TUR-3200, Nihon Kohden, Japan). Protective action was examined using collapsing as an index. Inhalation of the test compound was performed by placing the guinea pigs in the aforementioned aerosol inhalation device and spraying the test compound dissolved in a physiological saline to a predetermined concentration for 5 minutes. Then, the guinea pigs were allowed to immediately inhale histamine and delay in collapsing by dyspnea was measured.

| Structure (SMILES) | Antihypertensive action (SHR i.v.) [1] [mmHg] | IC50 (thoracic aorta) [nM] | Increase in coronary blood flow, T 1/2 (half life as duration of effects) (left coronary artery) [min] | Increase in coronary blood flow, ED50 (left coronary artery) [µg] | IC50 (trachea) [nM] | Average time until collapsing ([2]; 0.01% inhaled for 5 minutes) [s] | Average time until collapsing ([2]; 0.1% inhaled for 5 minutes) [s] |
| --- | --- | --- | --- | --- | --- | --- | --- |
| C[C@@H](N)[C@H]1CC[C@H](C(=O)Nc2ccnc3[nH]ccc23)CC1 [Example 3, (+)-trans-N-(1H-pyrrolo[2,3-b]pyridin-4-yl)-4-(1-aminoethyl)cyclohexanecarboxamide] | -62 | 90 | 2.7 | 8.8 | 60 | 152.4 ± 12.2 | 235.4 ± 40.2 |
| CC(C)(N)[C@H]1CC[C@H](C(=O)Nc2ccnc3[nH]ccc23)CC1 [Example 4, trans-N-(1H-pyrrolo[2,3-b]pyridin-4-yl)-4-(1-amino-1-methylethyl)cyclohexanecarboxamide] | -77 | 80 | 3.8 | 7.0 | 90 |  |  |
| C[C@@H](N)[C@H]1CC[C@H](C(=O)Nc2ccnc3[nH]ncc23)CC1 [Example 6, (+)-trans-N-(1H-pyrazolo[3,4-b]pyridin-4-yl)-4-(1-aminoethyl)cyclohexanecarboxamide] | -96 | 120 | 3.0 | 4.3 | 170 |  |  |
| CC(C)(N)[C@H]1CC[C@H](C(=O)Nc2ccnc3[nH]ncc23)CC1 [Example 7, trans-N-(1H-pyrazolo[3,4-b]pyridin-4-yl)-4-(1-amino-1-methylethyl)cyclohexanecarboxamido] | -53 | 190 | 6.7 | 20 | 310 |  |  |
